{"source": "patent US20140147411A1", "about": "“METHODS OF TREATING CANCER AND TESTING MUTATION ZYGOSITY RELATED THERETO” (U.S. GOVERNMENT represented by the UNITED STATES DEPARTMENT …, priority 2012, published 2014)", "molecules": {"B1": {"name": "IFN-γ: a type II interferon, cytokine, potent inducer of MHC expression (protein, UniProt P01579 24-161, looked up)", "Interferon gamma": "QDPYVKEAENLKKYFNAGHSDVADNGTLFLGILKNWKEESDRKIMQSQIVSFYFKLFKNFKDDQSIQKSVETIKEDMNVKFFNSNKKKRDDFEKLTNYSVTDLNVQRKAIHELIQVMAELSPAAKTGKRKRSQMLFRG"}}, "key": {"AKT (serine 473)": {"test_system": "AKT (serine 473)", "test": "AKT phosphorylation in the melanoma cell model system", "assay_type": "cell-based", "conditions": "BEZ235"}, "melanoma cell lines": {"test_system": "melanoma cell lines", "test": "MHC induction by IFN-γ with PI3K/mTOR inhibitor in melanoma cell lines, flow cytometry", "conditions": "BEZ235 0.5 μM, MHC class I and class II, melanoma cell lines of FIG. 4", "description": "Fold induction of cell surface MHC class I was calculated by dividing averaged MFI values for cells treated as indicated along the x-axis by averaged MFI values of cells treated with vehicle (DMSO) alone. […] MHC class I and class II levels were assessed as in part A.\nBEZ235 a dual PI3K/mammalian target of rapamycin inhibitor was used."}, "[1]": {"test_system": "phospho-ERK (Thr 202/Tyr 204)", "test": "ERK phosphorylation by western blot in A375 cells", "assay_type": "cell-based", "conditions": "10 μM PLX4720, western blot, 24 hours", "description": "A representative western blot is shown. A375 cells were pre-treated with vehicle (DMSO) or 10 μM of PLX4720 60 minutes prior to the addition of IFN-γ (100 U/ml). Whole cell lysates were prepared 24 hours later and levels of phospho-ERK (Thr 202/Tyr 204) and total ERK protein were analyzed by western blot. […] The error bars represent the SEM.\nA representative western blot is shown. […] Cell lysates were prepared 72 hours later and levels of total ERK and phospho-ERK (Thr 202/Tyr 204) protein analyzed by western blot. […] GAPDH levels are shown as a loading control. […] Control cells were treated only with vehicle (DMSO)."}, "A375 melanoma cells": {"test_system": "A375 melanoma cells", "test": "Cell surface MHC class I, B2M and MHC class II by flow cytometry in A375 cells after interferon", "description": "A representative western blot is shown. A375 cells were pre-treated with vehicle (DMSO) or 10 μM of PLX4720 60 minutes prior to the addition of IFN-γ (100 U/ml). Whole cell lysates were prepared 24 hours later and levels of phospho-ERK (Thr 202/Tyr 204) and total ERK protein were analyzed by western blot. B, A representative flow cytometry histogram is shown. A375 cells were pre-treated with vehicle (DMSO, black line, unfilled) or 10 μM PLX4720 (black dotted line) for 60 minutes prior to the addition of IFN-γ (10 U/ml). Control cells were left untreated (gray filled). Cell surface MHC class I was analyzed using flow cytometry 72 hours later using an antibody that recognizes a shared epitope on HLA-A, B and C molecules. Cells stained with an isotype control antibody are shown (black filled). C, Averaged mean fluorescence intensity (MFI) from three independent flow cytometry experiments is shown (y-axis) and treatments are indicated along the x-axis. The error bars represent the SEM. (*, p<0.05; two-tailed paired Student's t test, as compared to cells treated with IFN-γ and pre-treated with DMSO).\nA representative western blot is shown. […] Cell lysates were prepared 72 hours later and levels of total ERK and phospho-ERK (Thr 202/Tyr 204) protein analyzed by western blot. […] Cell surface MHC class I (HLA-A, B, C), B2M, and MHC class II (HLA-DR) levels were analyzed 72 hours later using flow cytometry. Values represent the average mean fluorescence intensity (MFI) for three independent experiments and error bars represent the SEM. […] GAPDH levels are shown as a loading control. D, Induction of HLA-A, HLA-DR, CIITA and NLRC5 mRNA in A375 cells. […] Control cells were treated only with vehicle (DMSO). Steady state mRNA levels were measured using quantitative real-time RT-PCR 72 hours later and are expressed as fold over vehicle (DMSO) treated cells. Error bars represent SEM from at least 3 independent experiments. (*, p<0.05, **, p<0.01, 2-tailed paired Student's t test, as compared to cells treated with IFN-γ and pre-treated with DMSO)\nError bars represent the SEM. […] Flow cytometry was used to select transfected (GFP positive) and non-transfected (GFP negative) cells and MHC class I levels were measured on these two cell populations. Average values from three independent experiments are shown. MHC class I levels are expressed as the % of MHC class I on control cells (cells non-transfected using the empty vector plasmid). […] Cells stained with an isotype control antibody are shown in black filled."}, "CIITA mRNA": {"test_system": "CIITA mRNA", "conditions": "SKMEL-28 cells, vemurafenib 0.5 μM, IFN-γ 20 U/ml", "description": "(§1) Cell surface MHC class I (HLA-A, B and C, top panels) and MHC class II (HLA-DR, lower panels) levels were measured 72 hours later using flow cytometry. […] Fold induction of cell surface MHC class I was calculated by dividing averaged MFI values for cells treated as indicated along the x-axis by averaged MFI values of cells treated with vehicle (DMSO) alone. Fold inductions for heterozygous cell lines (MALME-3M, SKMEL-3, and SKMEL-5) were averaged together (gray bars) as were the fold inductions for three homozygous (white bars) cell lines (A375, HT-144, and SKMEL-28). […] The DMSO-treated cells (gray diamonds) from part A are compared to those treated with BEZ235 (0.5 μM, black squares). MHC class I and class II levels were assessed as in part A."}, "SKMEL-3 cells": {"test_system": "SKMEL-3 cells", "test": "Cell surface MHC by flow cytometry in SKMEL-3 cells after IFN-γ", "conditions": "SKMEL3 cells (heterozygous for BRAFV600E), vemurafenib 0.5 μM, 72 hours", "description": "as §1"}, "SKMEL-5 cells": {"test_system": "SKMEL-5 cells", "test": "Cell surface MHC by flow cytometry in SKMEL-5 cells after IFN-γ", "conditions": "SKMEL5 cells (heterozygous for BRAFV600E), vemurafenib 0.5 μM, 72 hours", "description": "as §1"}, "MALME-3M cells": {"test_system": "MALME-3M cells", "test": "Cell surface MHC by flow cytometry in MALME-3M cells after IFN-γ", "conditions": "MALME-3M cells (heterozygous for BRAFV600E), vemurafenib 0.5 μM, 72 hours", "description": "as §1"}, "[2]": {"test_system": "SKMEL-2 (BRAF codon 600 wild-type) cells", "test": "Cell surface MHC by flow cytometry in SKMEL-2 cells after IFN-γ", "description": "Values represent the average mean fluorescence intensity (MFI) for three independent experiments and error bars represent the SEM. […] Control cells were treated only with vehicle (DMSO). […] Error bars represent SEM from at least 3 independent experiments."}, "[3]": {"test_system": "BRAFV600E homozygous cell lines (A375, HT-144, and SKMEL-28)", "test": "Fold MHC class I induction averaged over BRAFV600E homozygous cell lines", "conditions": "MFI over vehicle (DMSO) alone", "description": "The y-axis represents average MFI for at least three independent experiments except those for MeWo and SKMEL-5 which are the average of two independent experiments. […] Fold induction of cell surface MHC class I was calculated by dividing averaged MFI values for cells treated as indicated along the x-axis by averaged MFI values of cells treated with vehicle (DMSO) alone. […] MHC class I and class II levels were assessed as in part A."}, "[4]": {"test_system": "BRAFV600E heterozygous cell lines (MALME-3M, SKMEL-3, and SKMEL-5)", "test": "Fold MHC class I induction averaged over BRAFV600E heterozygous cell lines", "conditions": "MFI over vehicle (DMSO) alone", "description": "as §1"}, "[5]": {"conditions": "A375 cells, sorafenib 10 μM prior to IFN-γ 2000 U/ml, not statistically significant (ANOVA)"}}}
{"molecule": "Cn1c(=O)n(-c2ccc(C(C)(C)C#N)cc2)c2c3cc(-c4cnc5ccccc5c4)ccc3ncc21", "note": "[BEZ235]", "values": [{"measurement": "phosphorylation of AKT (serine 473)", "setting": "AKT (serine 473)", "value": "reduced the phosphorylation of AKT (serine 473)"}, {"measurement": "induction of MHC molecules by IFN-γ", "setting": "melanoma cell lines", "value": "did not enhance the induction of MHC molecules by IFN-γ, rather, it attenuated MHC induction in some of the cell lines examined"}]}
{"molecule": "CCCS(=O)(=O)Nc1ccc(F)c(C(=O)c2c[nH]c3ncc(Cl)cc23)c1F", "note": "[PLX4720]", "values": [{"measurement": "levels of ERK phosphorylation", "setting": "[1]", "value": "reduced levels of ERK phosphorylation"}, {"measurement": "induction of MHCI molecules by IFN-γ", "setting": "A375 melanoma cells; A375 cells, 10 μM PLX4720 60 minutes prior to IFN-γ (10 U/ml), 72 hours", "value": "enhanced the induction of MHCI molecules by IFN-γ"}]}
{"molecule": "CNC(=O)c1cc(Oc2ccc(NC(=O)Nc3ccc(Cl)c(C(F)(F)F)c3)cc2)ccn1", "note": "[sorafenib]", "values": [{"measurement": "induction of MHCI molecules by IFN-γ", "setting": "A375 melanoma cells; [5]", "value": "enhanced the induction of MHCI molecules"}, {"measurement": "induction of the MHCII molecule HLA-DR by IFN-γ", "setting": "A375 melanoma cells; [5]", "value": "decreased the induction of the MHCII molecule HLA-DR"}]}
{"molecule": "CCCS(=O)(=O)Nc1ccc(F)c(C(=O)c2c[nH]c3ncc(-c4ccc(Cl)cc4)cc23)c1F", "note": "[vemurafenib]", "values": [{"measurement": "time after the addition of IFN-γ at which the effect on CIITA mRNA was most pronounced", "setting": "CIITA mRNA", "value": 48, "unit": "h"}, {"measurement": "induction of MHCI molecules by IFN-γ", "setting": "SKMEL-3 cells", "value": "no effect"}, {"measurement": "induction of MHCII molecules by IFN-γ", "setting": "SKMEL-3 cells", "value": "no effect"}, {"measurement": "induction of MHCI molecules by IFN-γ", "setting": "SKMEL-5 cells", "value": "no effect"}, {"measurement": "induction of MHCII molecules by IFN-γ", "setting": "SKMEL-5 cells", "value": "no effect"}, {"measurement": "induction of MHCI molecules by IFN-γ", "setting": "MALME-3M cells", "value": "no effect"}, {"measurement": "induction of MHCII molecules by IFN-γ", "setting": "MALME-3M cells", "value": "no effect"}]}
{"molecule": "B1", "values": [{"measurement": "cell surface MHCI, MHCII and B2M protein levels", "setting": "[2]", "value": "increases in cell surface MHCI, MHCII and B2M protein levels"}, {"measurement": "fold increase of MHCI levels by IFN-γ", "setting": "[3]", "value": "around four"}, {"measurement": "fold increase of MHCI levels by IFN-γ", "setting": "[4]", "value": "around four"}, {"measurement": "MHCI cell surface expression", "setting": "A375 melanoma cells; A375 cells treated with IFN-γ alone, flow cytometry", "value": "lead to an induction of MHCI cell surface expression"}]}
